Assay results as given in ChEMBL document CHEMBL4673273, “Development of autotaxin inhibitors: A series of tetrazole cinnamides” (Bioorg Med Chem Lett, 2021).

What was measured:
[1] = Metabolic stability in rat liver microsomes assessed as intrinsic clearance; assay type: ADME, Microsome; details: read-out: CLH
Autotaxin [2] = biological target: T1, Autotaxin (Homo sapiens, UniProt Q13822)
Description: Inhibition of human recombinant ATX expressed in HEK293 cells assessed as inhibition of choline release using LPC (18:1) as substrate preincubated with enzyme for 20 mins followed by substrate addition and measured every 2 mins for 40 mins by resurofin-based fluorescence analysis

[3] = Metabolic stability in human liver microsomes assessed as intrinsic clearance; assay type: ADME, Microsome; details: read-out: CLH
[4] = biological target: Voltage-gated inwardly rectifying potassium channel KCNH2 (Homo sapiens, UniProt Q12809); experiment: Inhibition of human ERG expressed in CHO-K1 cells by automated Qpatch clamp assay
[5] = Tmax in Sprague-Dawley rat at 10 mg/kg, po; assay type: ADME, organism-based; details: in vivo
[6] = (§1) In vivo inhibition of ATX in po dosed Sprague-Dawley rat assessed as inhibition of LPA formation in serum by LC-MS analysis; assay type: functional, organism-based
Rattus norvegicus = experiment: as §1; assay type: functional, organism-based
Autotaxin [7] = biological target: T1, Autotaxin; experiment: Inhibition of ATX in human serum assessed as reduction in LPA (18:1) level by LC-MS analysis; assay type: cell-free
[8] = Oral bioavailability in Sprague-Dawley rat at 10 mg/kg; assay type: ADME, organism-based; details: in vivo
[9] = Cmax in Sprague-Dawley rat at 10 mg/kg, po; assay type: ADME, organism-based; parameters: route oral, dose 10 mg/kg; details: in vivo
[10] = AUC (0 to infinity) in Sprague-Dawley rat at 10 mg/kg, po; assay type: ADME, organism-based; parameters: route oral, time infinity, dose 10 mg/kg; details: in vivo
[11] = Volume of distribution at steady state in Sprague-Dawley rat at 1 mg/kg, iv; assay type: ADME, organism-based; details: in vivo, read-out: Vdss
[12] = Clearance in Sprague-Dawley rat at 1 mg/kg, iv; assay type: ADME, organism-based; details: in vivo
[13] = Half life in Sprague-Dawley rat at 1 mg/kg, iv; assay type: ADME, organism-based; details: in vivo
[14] = Equilibrium solubility of compound at pH 6.8; assay type: physicochemical; details: buffer
[15] = Passive Permeability of the compound across artificial membrane assessed as fraction absorbed by PAMPA assay

Chain of Voltage-gated inwardly rectifying potassium channel KCNH2 (Q12809 whole entry): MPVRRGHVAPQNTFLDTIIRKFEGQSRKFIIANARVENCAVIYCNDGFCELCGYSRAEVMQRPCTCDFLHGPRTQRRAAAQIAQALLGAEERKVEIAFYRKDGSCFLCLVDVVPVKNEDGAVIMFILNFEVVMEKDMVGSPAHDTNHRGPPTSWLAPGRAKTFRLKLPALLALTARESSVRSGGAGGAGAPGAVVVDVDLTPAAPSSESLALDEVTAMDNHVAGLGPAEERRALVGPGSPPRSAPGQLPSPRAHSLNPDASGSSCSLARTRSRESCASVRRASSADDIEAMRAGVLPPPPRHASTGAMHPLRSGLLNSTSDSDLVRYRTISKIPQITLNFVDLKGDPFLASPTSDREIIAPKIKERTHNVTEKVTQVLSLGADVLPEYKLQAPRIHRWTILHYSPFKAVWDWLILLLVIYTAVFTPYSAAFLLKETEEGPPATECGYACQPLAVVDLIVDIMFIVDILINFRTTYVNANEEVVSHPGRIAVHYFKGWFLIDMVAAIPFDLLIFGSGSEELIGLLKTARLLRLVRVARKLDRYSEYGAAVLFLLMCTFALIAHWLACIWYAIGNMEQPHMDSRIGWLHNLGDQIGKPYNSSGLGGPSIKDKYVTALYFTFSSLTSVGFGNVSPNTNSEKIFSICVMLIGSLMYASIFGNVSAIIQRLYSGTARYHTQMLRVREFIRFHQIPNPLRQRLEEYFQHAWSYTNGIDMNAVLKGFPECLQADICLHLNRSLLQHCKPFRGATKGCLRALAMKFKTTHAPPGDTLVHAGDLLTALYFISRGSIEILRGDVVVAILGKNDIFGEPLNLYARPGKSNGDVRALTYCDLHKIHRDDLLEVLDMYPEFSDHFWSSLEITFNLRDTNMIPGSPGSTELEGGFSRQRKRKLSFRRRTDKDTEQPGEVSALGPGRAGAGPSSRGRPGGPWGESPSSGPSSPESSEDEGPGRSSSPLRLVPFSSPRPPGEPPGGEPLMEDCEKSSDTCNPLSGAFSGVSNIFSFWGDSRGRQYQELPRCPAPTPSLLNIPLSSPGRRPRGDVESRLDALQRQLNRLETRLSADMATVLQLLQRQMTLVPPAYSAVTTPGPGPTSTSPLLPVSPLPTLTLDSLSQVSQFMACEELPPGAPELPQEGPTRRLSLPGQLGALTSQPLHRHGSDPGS

Row | SMILES | microsomal CLint [1] | IC50 (Autotaxin [2]) | IC50 [4] | further results
1 | Cc1nnn(Cc2cc(Cl)ccc2/C=C/C(=O)N2CCN(Cc3ccc(F)cc3)CC2)n1 | 470 µL/min/mg | 20 nM | – | –
2 | Cc1nnn(Cc2cc(Cl)ccc2/C=C/C(=O)N2CCN(C(=O)c3ccc(F)cc3)CC2)n1 | 71 µL/min/mg | 1600 nM | – | –
3 | Cc1nnn(Cc2cc(Cl)ccc2/C=C/C(=O)N2CCN(Cc3ccc(F)cc3)C[C@H]2C)n1 | 510 µL/min/mg | 9.6 nM | – | microsomal CLint [3]: 230 µL/min/mg
4 | Cc1nnn(Cc2cc(Cl)ccc2/C=C/C(=O)N2CCNC[C@H]2C)n1 | 84 µL/min/mg | 95 nM | – | –
5 | COc1ccc(CN2CCN(C(=O)/C=C/c3ccc(Cl)cc3Cn3nnc(C)n3)CC2)nc1 | 190 µL/min/mg | – | 1900 nM | –
6 | Cc1nnn(Cc2cc(Cl)ccc2CCC(=O)N2CCN(Cc3ccc(F)cc3)C[C@H]2C)n1 | > 920 µL/min/mg | 19 nM | – | –
7 | Cc1cnn(Cc2cc(Cl)ccc2/C=C/C(=O)N2CCN(Cc3ccc(F)cc3)C[C@H]2C)n1 | 690 µL/min/mg | 5.9 nM | – | –
8 | COc1ccc(CN2CCN(C(=O)/C=C/c3ccc(Cl)cc3Cn3nnc(C)n3)CC2)cc1 | 520 µL/min/mg | 9.2 nM | – | –
9 | Cc1nnn(Cc2cc(C(F)(F)F)ccc2/C=C/C(=O)N2CCC(C(F)(F)F)CC2)n1 | 41 µL/min/mg | 13 nM | – | –
10 | C[C@@H]1CN(Cc2ccc(F)cc2)CCN1C(=O)/C=C/c1ccc(Cl)cc1Cn1ncnn1 | 730 µL/min/mg | 16 nM | – | –
11 | Cc1noc(Cc2cc(Cl)ccc2/C=C/C(=O)N2CCN(Cc3ccc(F)cc3)C[C@H]2C)n1 | 580 µL/min/mg | 18 nM | – | –
12 | Cc1nnn(Cc2cc(C(F)(F)F)ccc2/C=C/C(=O)N2CCC(C#N)CC2)n1 | 28 µL/min/mg | 790 nM | 25000 nM | Fa [15]: 27%

More lines, main results first:

Row | microsomal CLint [1] | IC50 (Autotaxin [2]) | SMILES | IC50 [4] | further results
13 | 570 µL/min/mg | – | Cc1nnn(Cc2cc(Cl)ccc2/C=C/C(=O)N2CCC(Cc3ncc(C)o3)CC2)n1 | – | –
14 | 49 µL/min/mg | – | Cc1nnn(Cc2cc(Cl)ccc2/C=C/C(=O)N2CCN(Cc3cnn(C)c3)CC2)n1 | 15000 nM | –
15 | 88 µL/min/mg | – | Cc1cc(CN2CCN(C(=O)/C=C/c3ccc(Cl)cc3Cn3nnc(C)n3)CC2)on1 | 12000 nM | –
16 | 15 µL/min/mg | 16 nM | Cc1ncn(C2CCN(C(=O)/C=C/c3ccc(C(F)(F)F)cc3Cn3nnc(C)n3)CC2)n1 | 25000 nM | microsomal CLint [3]: 16 µL/min/mg
17 | 19 µL/min/mg | – | Cc1nnn(Cc2cc(C(F)(F)F)ccc2/C=C/C(=O)N2CCC(c3nnc(C)o3)CC2)n1 | 23000 nM | Tmax [5]: 1.3 h; IC50 [6]: 5 nM; inhibition (Rattus norvegicus): Dose-dependent effect; IC50 (Autotaxin [7]): 12 nM; bioavailability [8]: 94%; Cmax [9]: 5.1 µM; AUC [10]: 23.2 µM·h; Vd [11]: 1.8 L/kg; clearance [12]: 15 mL/min/kg; half-life [13]: 3.6 h; microsomal CLint [3]: 13 µL/min/mg
18 | 72 µL/min/mg | – | Cc1nnn(Cc2cc(Cl)ccc2/C=C/C(=O)N2CCN(Cc3coc(C)n3)CC2)n1 | 23000 nM | Tmax [5]: 0.4 h; bioavailability [8]: 52%; Cmax [9]: 2.8 µM; AUC [10]: 4.4 µM·h; Vd [11]: 1.6 L/kg; clearance [12]: 45 mL/min/kg; solubility thermodynamic [14]: > 1000 µM; half-life [13]: 0.8 h
19 | 89 µL/min/mg | 60 nM | Cc1nnn(Cc2cc(C(F)(F)F)ccc2/C=C/C(=O)N2CCC(Cl)CC2)n1 | > 30000 nM | Fa [15]: 89%
20 | 89 µL/min/mg | – | Cc1nnn(Cc2cc(Cl)ccc2/C=C/C(=O)N2CCC(Cc3nnc(C)o3)CC2)n1 | > 30000 nM | –
21 | 87 µL/min/mg | 26 nM | Cc1cc(CN2CCN(C(=O)/C=C/c3ccc(Cl)cc3Cn3nnc(C)n3)CC2=O)on1 | – | –
22 | 36 µL/min/mg | – | Cc1noc(C2CCN(C(=O)/C=C/c3ccc(C(F)(F)F)cc3Cn3nnc(C)n3)CC2)n1 | – | –
23 | 35 µL/min/mg | – | Cc1nnn(Cc2cc(C(F)(F)F)ccc2/C=C/C(=O)N2CCC(c3noc(C)n3)CC2)n1 | > 30000 nM | microsomal CLint [3]: 19 µL/min/mg
